Measured values reported in ChEMBL document CHEMBL1201862, “PubChem BioAssay data set” (2004).
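A five-concentration, 48-hour dose response in 96-well plates underlies each endpoint, interpolated linearly between surrounding concentrations. GI50 marks 50% less growth.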 The source made the active and inactive calls. Rule as the data show it: active = GI50 up to about 1.1 µM and inactive = higher.

Columns and labels:
Assay in all cases: NCI tumour cell line growth inhibition, 48 h
786-0 = tested on: 786-0
A498 = tested on: A498
A549 = tested on: A549
ACHN = tested on: ACHN
BT-549 = tested on: BT-549
CAKI-1 = tested on: CAKI-1
CCRF-CEM = tested on: CCRF-CEM
COLO 205 = tested on: COLO 205
EKVX = tested on: EKVX
HCT-116 = tested on: HCT-116
HCT-15 = tested on: HCT-15
HL-60 = tested on: HL-60
HOP-62 = tested on: HOP-62
HOP-92 = tested on: HOP-92
HT-29 = tested on: HT-29
Hs-578T = tested on: Hs-578T
IGROV-1 = tested on: IGROV-1
K562 = tested on: K562
LOX IMVI = tested on: LOX IMVI
M14 = tested on: M14
MCF7 = tested on: MCF7
MDA-MB-231 = tested on: MDA-MB-231
MDA-MB-435 = tested on: MDA-MB-435
MDA-N = tested on: MDA-N
MOLT-4 = tested on: MOLT-4
Malme-3M = tested on: Malme-3M
NCI-H226 = tested on: NCI-H226
NCI-H23 = tested on: NCI-H23
NCI-H460 = tested on: NCI-H460
NCI-H522 = tested on: NCI-H522
NCI/ADR-RES = tested on: NCI/ADR-RES
OVCAR-3 = tested on: OVCAR-3
OVCAR-4 = tested on: OVCAR-4
OVCAR-5 = tested on: OVCAR-5
OVCAR-8 = tested on: OVCAR-8
PC-3 = tested on: PC-3
RPMI-8226 = tested on: RPMI-8226
RXF 393 = tested on: RXF 393
SF-268 = tested on: SF-268
SF-295 = tested on: SF-295
SF-539 = tested on: SF-539
SK-MEL-28 = tested on: SK-MEL-28
SK-MEL-2 = tested on: SK-MEL-2
SK-MEL-5 = tested on: SK-MEL-5
SK-OV-3 = tested on: SK-OV-3
SN12C = tested on: SN12C
SNB-19 = tested on: SNB-19
SNB-75 = tested on: SNB-75
SR = tested on: SR
SW-620 = tested on: SW-620
T47D = tested on: T47D
TK-10 = tested on: TK-10
U-251 = tested on: U-251
UACC-257 = tested on: UACC-257
UACC-62 = tested on: UACC-62
UO-31 = tested on: UO-31
DU-145 = tested on: DU-145
HCC 2998 = tested on: HCC 2998

C=CCc1c(C)nc(C)nc1N/N=C/C=C/c1ccccc1
GI50 (786-0): 65.2 µM (inactive) | GI50 (A498): 25.9 µM (inactive) | GI50 (A549): 37.4 µM (inactive) | GI50 (ACHN): > 100 µM (inactive) | GI50 (BT-549): 23.8 µM (inactive) | GI50 (CAKI-1): 58.6 µM (inactive) | GI50 (CCRF-CEM): 44 µM (inactive) | GI50 (COLO 205): 24.8 µM (inactive) | GI50 (EKVX): 17.6 µM (inactive) | GI50 (HCT-116): 36.1 µM (inactive) | GI50 (HCT-15): 35.4 µM | GI50 (HL-60): 33.6 µM (inactive) | GI50 (HOP-62): 16.5 µM (inactive) | GI50 (HOP-92): 40.5 µM (inactive) | GI50 (HT-29): 30.8 µM (inactive) | GI50 (Hs-578T): 48.9 µM (inactive) | GI50 (IGROV-1): 31.4 µM (inactive) | GI50 (K562): 23.3 µM (inactive) | GI50 (LOX IMVI): 39.1 µM (inactive) | GI50 (M14): 31.2 µM (inactive) | GI50 (MCF7): 23.6 µM (inactive) | GI50 (MDA-MB-231): > 100 µM (inactive) | GI50 (MDA-MB-435): 23.6 µM (inactive) | GI50 (MDA-N): 29.2 µM (inactive) | GI50 (MOLT-4): 22.4 µM (inactive) | GI50 (Malme-3M): 70 µM (inactive) | GI50 (NCI-H226): > 100 µM (inactive) | GI50 (NCI-H23): 27.9 µM (inactive) | GI50 (NCI-H460): 22.4 µM (inactive) | GI50 (NCI-H522): 28.2 µM (inactive) | GI50 (NCI/ADR-RES): 23.9 µM (inactive) | GI50 (OVCAR-3): 19.4 µM (inactive) | GI50 (OVCAR-4): 0.0435 µM (active) | GI50 (OVCAR-5): 99.5 µM (inactive) | GI50 (OVCAR-8): 32.2 µM (inactive) | GI50 (PC-3): 34.9 µM (inactive) | GI50 (RPMI-8226): 21.9 µM (inactive) | GI50 (RXF 393): 4.06 µM (inactive) | GI50 (SF-268): 44.1 µM (inactive) | GI50 (SF-295): 19.5 µM (inactive) | GI50 (SF-539): 32.1 µM (inactive) | GI50 (SK-MEL-28): 41 µM (inactive) | GI50 (SK-MEL-2): 36.7 µM (inactive) | GI50 (SK-MEL-5): 20.3 µM (inactive) | GI50 (SK-OV-3): 55.5 µM (inactive) | GI50 (SN12C): 48 µM (inactive) | GI50 (SNB-19): 31.8 µM (inactive) | GI50 (SNB-75): 21.9 µM (inactive) | GI50 (SR): 22.6 µM (inactive) | GI50 (SW-620): 51.8 µM (inactive) | GI50 (T47D): 3.73 µM (inactive) | GI50 (TK-10): 33 µM (inactive) | GI50 (U-251): 23.6 µM (inactive) | GI50 (UACC-257): 14.4 µM (inactive) | GI50 (UACC-62): 20.6 µM (inactive) | GI50 (UO-31): 39.7 µM (inactive)

Nc1ccc2cc3ccc(N)cc3nc2c1
GI50 (ACHN): 0.826 µM (active) | GI50 (BT-549): 3.72 µM (inactive) | GI50 (CAKI-1): 1.56 µM (inactive) | GI50 (CCRF-CEM): 1 µM (active) | GI50 (COLO 205): 0.771 µM (active) | GI50 (DU-145): 3.33 µM (inactive) | GI50 (EKVX): 1.56 µM (inactive) | GI50 (HCC 2998): 1.25 µM (inactive) | GI50 (HCT-116): 0.482 µM (active) | GI50 (HL-60): 1.56 µM (inactive) | GI50 (HOP-62): 1.62 µM (inactive) | GI50 (HT-29): 0.499 µM (active) | GI50 (Hs-578T): 2.43 µM (inactive) | GI50 (MCF7): 0.757 µM (active) | GI50 (MDA-MB-231): 1.94 µM (inactive) | GI50 (MDA-N): 1.41 µM (inactive) | GI50 (MOLT-4): 0.524 µM (active) | GI50 (NCI-H460): 0.46 µM (active) | GI50 (NCI/ADR-RES): 1.03 µM (active) | GI50 (OVCAR-3): 2.09 µM (inactive) | GI50 (OVCAR-5): 1.63 µM (inactive) | GI50 (OVCAR-8): 0.678 µM (active) | GI50 (SF-268): 1.37 µM (inactive) | GI50 (SF-295): 2.42 µM (inactive) | GI50 (SF-539): 1.02 µM (active) | GI50 (SK-MEL-28): 2 µM (inactive) | GI50 (SK-MEL-5): 1.4 µM (inactive) | GI50 (SN12C): 0.979 µM (active) | GI50 (SNB-75): 1.34 µM (inactive) | GI50 (SR): 0.667 µM (active) | GI50 (SW-620): 0.395 µM (active) | GI50 (T47D): 2.63 µM (inactive) | GI50 (TK-10): 2.69 µM (inactive) | GI50 (UACC-257): 2 µM (inactive) | GI50 (UACC-62): 1.41 µM (inactive) | GI50 (UO-31): 0.993 µM (active)
